Measured values as given in patent publication US10662218B2, “Analogs of celastrol” (ERX Pharmaceuticals, Inc., priority 2015, dated 2020).
In brackets after ≈: the same amount, converted by molar mass. Several values for one entry are separate records, joined by “and”; a condition that tells them apart may be missing. Identical values can stand only once. Like-named read-outs stand apart in the source and are kept apart here.

Legend:
[1] = tested on: C57BL/6 Diet Induced Obese (DIO) mice; assay: Oral (P.O.) administration study in DIO mice: animal fate (mortality) and clinical observations; conditions: individual male animals, 2 mg/kg, phase of fate Dosing, phase week 2, phase day 11
Procedure: Male C57BL/6 DIO mice were assigned to 12 groups, and doses of 2 mg/kg Celastrol (ERX1000-4), ERX1006, ERX1007, ERX1037, ERX1060, ERX1077, ERX1107, ERX1149, ERX1168, ERX1177, and Pristimerin were administered to Groups 2 through 12, respectively. Animals were dosed via oral gavage once daily for 10 days at a volume of 2 mL/kg. The vehicle control article was 1% methyl cellulose (400 cps) in citric acid and phosphate buffer.
Parameters assessed included mortality, clinical observations, body weights and food consumption and blood glucose evaluations.
All animals were anesthetized via carbon dioxide, sacrificed, and discarded without further evaluation on Day 11.

physchem = conditions: pH 7.4, aqueous buffer, kinetic from dmso stock
Procedure: • Test concentration: 100 μM (1% of DMSO) • Test systems: PBS (pH 7.4) • Incubation condition: shaken (1000 rpm) for 1 h at room temperature • Sample size: Duplicates (n=2) • Bioanalytical method: LC-MS/MS

[2] = tested on: C57BL/6 Diet Induced Obese (DIO) mice; assay: Oral (P.O.) administration study in DIO mice: in vivo activity, body weights; design: species or system mouse; conditions: for change in vivo at 2 mg/kg: Mus musculus, po, difference of group mean, read-out: Body weight, %-Diff
Description: The purpose of this study was to assess test articles in the Diet Induced Obese (DIO) mouse.
Male C57BL/6 Diet Induced Obese (DIO) mice were received from Taconic. Animals were acclimated to housing conditions for at least 1 week prior to vehicle acclimation dosing. Animals were acclimated to oral gavage dosing with vehicle once daily for Days 11 through 14 of the predose phase.
At initiation of dosing, animals were 21 to 22 weeks old, and their body weights ranged from 29.8 to 40.1 g.
Dose formulations were administered by oral gavage once daily for 10 days at a dose volume of 2 mL/kg. Doses were based on the most recently recorded scheduled body weight.
Body weights were recorded daily on Days 11 through 14 of the predose phase. Body weights were collected for all animals daily during the dosing phase prior to dosing.
Descriptive statistics (n, mean, standard error of the mean, standard deviation) were completed. Additionally, one-way analysis of variance followed by Dunnett's post-hoc test were performed on body weight (cumulative body weight change), glucose (glucose percent change), and food consumption (cumulative food consumption). Area under the curve (for body weight, cumulative body weight change, daily body weight change, and food consumption) was computed for treatment groups. An appropriate comparison test, such as one-way analysis of variance and Dunnett's, was performed on the group means for the area under the curve computations. Any additional statistical analysis and interpretation of the results were the responsibility of the sponsor.

With `CC(=O)OC1=C(C)C2=CC=C3[C@@](C)(CC[C@@]4(C)[C@@H]5C[C@](C)(C(=O)O)CC[C@]5(C)CC[C@]34C)C2=CC1=O` [ERX1007] the “Individual Animal Fate: Fate Status” value [1] was “Scheduled Sacrifice”, the solubility (physchem; Solubility (μM)) was 48.8 µM (≈ 24 µg/mL) and the solubility (physchem; Solubility (μM) Mean) was 48.8 µM (≈ 24 µg/mL). The “Body weight %-Diff” value ([2]; 2 mg/kg oral gavage once daily, dosing phase Day 1) was 1%, the “Body weight, Mean” value ([2]; 2 mg/kg oral gavage once daily, dosing phase Day 1, N 5) was 34.5 g and the “Body weight %-Diff” value ([2]; 2 mg/kg oral gavage once daily, dosing phase Day 2) was −1%. For the same compound, the “Body weight, Mean” value ([2]; 2 mg/kg oral gavage once daily, dosing phase Day 2, N 5) was 34.1 g, the “Body weight %-Diff” value ([2]; 2 mg/kg oral gavage once daily, dosing phase Day 3) was −2% and the “Body weight, Mean” value ([2]; 2 mg/kg oral gavage once daily, dosing phase Day 3, N 5) was 33.3 g. For the same compound, the “Body weight %-Diff” value ([2]; 2 mg/kg oral gavage once daily, dosing phase Day 4) was 0%, the “Body weight, Mean” value ([2]; 2 mg/kg oral gavage once daily, dosing phase Day 4, N 5) was 33.3 g and the “Body weight %-Diff” value ([2]; 2 mg/kg oral gavage once daily, dosing phase Day 5) was −2%. The “Body weight, Mean” value ([2]; 2 mg/kg oral gavage once daily, dosing phase Day 5, N 5) was 33.1 g, the “Body weight %-Diff” value ([2]; 2 mg/kg oral gavage once daily, dosing phase Day 6) was −3% and the “Body weight, Mean” value ([2]; 2 mg/kg oral gavage once daily, dosing phase Day 6, N 5) was 32.4 g. The “Body weight, Mean” value ([2]; Day 7, DSNG phase, 2 mg/kg, male, N=5) was 32.4 g, the “Body weight, Mean” value ([2]; Day 8, DSNG phase, 2 mg/kg, male, N=5) was 32.7 g and the “Body weight, Mean” value ([2]; Day 9, DSNG phase, 2 mg/kg, male, N=5) was 32.3 g. For the same compound, the “Body weight, Mean” value ([2]; Day 10, DSNG phase, 2 mg/kg, male, N=5) was 32.1 g, the “Body weight, Mean” value ([2]; Day 11, DSNG phase, 2 mg/kg, male, N=5) was 32.3 g and the change in vivo at 2 mg/kg ([2]; 168 h, Day 7, DSNG phase, 2 mg/kg, male) was -3%. The change in vivo at 2 mg/kg ([2]; 192 h, Day 8, DSNG phase, 2 mg/kg, male) was -3%, the change in vivo at 2 mg/kg ([2]; 216 h, Day 9, DSNG phase, 2 mg/kg, male) was -3% and the change in vivo at 2 mg/kg ([2]; 240 h, Day 10, DSNG phase, 2 mg/kg, male) was -4%. For the same compound, the change in vivo at 2 mg/kg ([2]; 264 h, Day 11, DSNG phase, 2 mg/kg, male) was -5%, the “Individual Body Weight, PRED 11” value ([2]; individual male DIO mouse of the 2 mg/kg group, pre-dose phase day 11 (baseline)) was 36.8 g and 39.8 g and 35.7 g and 32.5 g and 37.6 g and the “Individual Body Weight, PRED 12” value ([2]; individual male DIO mouse of the 2 mg/kg group, pre-dose phase day 12 (baseline)) was 35.2 g and 38.9 g and 35.7 g and 31.7 g and 36.9 g. The “Individual Body Weight, PRED 13” value ([2]; individual male DIO mouse of the 2 mg/kg group, pre-dose phase day 13 (baseline)) was 34.1 g and 38.7 g and 35.3 g and 32.3 g and 36.5 g, the “Individual Body Weight, PRED 14” value ([2]; individual male DIO mouse of the 2 mg/kg group, pre-dose phase day 14 (baseline)) was 34.2 g and 38.6 g and 35.2 g and 32.7 g and 37.3 g and the “Individual Body Weight, DSNG 1” value ([2]; individual male DIO mouse, 2 mg/kg, dosing phase day 1, 2 mg/kg) was 33.8 g and 36.3 g and 34.7 g and 31.4 g and 36.2 g. The “Individual Body Weight, DSNG 2” value ([2]; individual male DIO mouse, 2 mg/kg, dosing phase day 2, 2 mg/kg) was 33.2 g and 36.4 g and 34.2 g and 30.3 g and 36.2 g.
